Experimental data from EP0561489A2, “Deodorant compositions containing materials for inhibiting bacterial adherence, method of use thereof, and method for determining materials that inhibit bacterial adherence” (THE MENNEN COMPANY, priority 1992, dated 1993).

Columns and labels:
[1] = system: small colony diphtheroids; details: human stratum corneum blended in physiological saline; U.S. Patent No. 4,518,517; cited from earlier work
[2] = system: adherence of aerobic diphtheroids to undifferentiated HE cells; assay: Inhibition of bacterial adherence to undifferentiated human epithelial cells; assay type: cell-based; details: 17 mg/ml final concentration
Experimental: Skin microorganisms were isolated from the axillae of ten healthy human volunteers (male and female). Corynebacterium diphtheriae, Corynebacterium group J-K, and Escherichia coli 1677 were also obtained. The latter bacteria were included as controls for the adherence experiments. Microorganisms were maintained either by subculture on blood agar plates or trypticase soy agar base with 5% defibrinated sheep's blood. Stock cultures were frozen at -20°C in semi-solid trypticase soy agar for aerobes and chopped meat carbohydrate broth for anaerobes. For in vitro adherence assays the lipophilic corynebacteria were serially subcultured three times for periods of 24 hrs. in tryptose broth with 0.5% Tween-80.
Isolation of microorganisms from the axillae was performed by addition of 1 ml of a 0.1% Triton X-100 solution onto a sterile glass cylinder placed firmly on the skin in the axilla (total area 3.8cm²). […]
Human epithelial (HE) cells (primary culture from normal human epidermal keratinocytes) were used to assess the adherence of the axillary microorganisms. […] Differentiation of HE cells was induced by addition of calcium chloride (CaCl₂) to a concentration of 2 mM/L. Differentiation was assessed by mound formation (3 to 5 layers of cells) during tissue culture and by a modified Ayoub-Shklar's stain for differentiated epithelial cells. […]

[3] = system: adherence of aerobic diphtheroids to differentiated HE cells; assay: Inhibition of bacterial adherence to differentiated human epithelial cells; assay type: cell-based; details: for inhibition of attachment of aerobic skin bacteria to differentiated HE cells (in words) / inhibition at 17000 µg/mL: 17 mg/ml final concentration; for inhibition at 17000 µg/mL: Homo sapiens, Epithelial cell

For `CC(=O)N[C@H]1C(O)O[C@H](CO)[C@@H](O)[C@@H]1O` (stereo partly drawn) [NAGA, N-acetyl-D-glucosamine], the “effect on diphtheroid bacterial attachment to the skin sample (in words)” value (shortened to “effect”) [1] is given as “neither galactose nor N-acetyl glucosamine had an effect”, the “inhibition of attachment of aerobic skin bacteria to undifferentiated HE cells (in words)” value [2] is given as “consistently able to inhibit attachment” and the “inhibition of attachment of aerobic skin bacteria to differentiated HE cells (in words)” value [3] is given as “consistently able to inhibit attachment”.
In the case of `OC[C@H]1O[C@@](CO)(O[C@H]2O[C@H](CO)[C@@H](O)[C@H](O)[C@H]2O)[C@@H](O)[C@@H]1O` [Sucrose, sucrose, reference compound], the “effect” value [1] is given as “a greater amount of bacteria attached to the skin than one treated with mannose” and the inhibition at 17000 µg/mL [3] is given as -12.8 to 22.6%.
For `O=C(CO)[C@@H](O)[C@H](O)[C@H](O)CO` [fructose], the “effect” value [1] is listed as “a greater amount of bacteria attached to the skin than one treated with mannose”.
With `C[C@@H](O)[C@H](O)[C@H](O)[C@@H](O)C=O` [fucose, D(+) fucose] the “inhibition of attachment of aerobic skin bacteria to undifferentiated HE cells (in words)” value [2] was “consistently able to inhibit attachment” and the “inhibition of attachment of aerobic skin bacteria to differentiated HE cells (in words)” value [3] was “consistently able to inhibit attachment”.
For `O=C[C@H](O)[C@@H](O)[C@@H](O)[C@H](O)CO` [galactose, D(+) galactose], the “effect” value [1] is listed as “neither galactose nor N-acetyl glucosamine had an effect”, the “inhibition of attachment to differentiated epithelial cells (in words)” value [3] is listed as “poor capacity to inhibit attachment” and the inhibition at 17000 µg/mL [3] is listed as 70 to 90%.
For `OC[C@H]1O[C@@H](O[C@H]2[C@H](O)[C@@H](O)C(O)O[C@@H]2CO)[C@H](O)[C@@H](O)[C@H]1O` (stereo partly drawn) [lactose], the “effect” value [1] is listed as “a greater amount of bacteria attached to the skin than one treated with mannose”.
In the case of `OC[C@H]1O[C@H](O[C@H]2[C@H](O)[C@@H](O)[C@H](O)O[C@@H]2CO)[C@H](O)[C@@H](O)[C@@H]1O` [maltose], the “effect” value [1] is listed as “a greater amount of bacteria attached to the skin than one treated with mannose”.
In the case of `OC[C@H]1O[C@H](OC[C@H]2O[C@H](O[C@]3(CO)O[C@H](CO)[C@@H](O)[C@@H]3O)[C@H](O)[C@@H](O)[C@@H]2O)[C@H](O)[C@@H](O)[C@H]1O` [raffinose], the “effect” value [1] is listed as “a greater amount of bacteria attached to the skin than one treated with mannose”.
In the case of `C[C@H](O)[C@H](O)[C@@H](O)[C@@H](O)C=O` [rhamnose], the “effect” value [1] is listed as “a greater amount of bacteria attached to the skin than one treated with mannose”.
